Laboratory results reported in patent US12415989B2, “Cell culture platform for single cell sorting and enhanced reprogramming of iPSCs” (Fate Therapeutics, Inc., priority 2010, dated 2025).
“Also recorded” adds a separate entry of the source.

Assays:
[1] = system: human pluripotent stem cells; assay: Small molecule cocktails in single cell culture of human pluripotent stem cells on feeder free substratum; assay type: cell-based; settings: in combination with MEKi/TFGβi/GSKi
Description: FIGS. 1A-1E. The effects of various small molecule cocktails on single cell culture of human pluripotent stem cells on feeder free substratum. FIG. 1A. Different morphologies were evident when single cell dissociated human pluripotent stem cells were treated with various combinations of small molecules in a feeder free environment. Medium containing a combination of ROCKi/MEKi/TGFβi/GSKi delivered robust growth and viability of human pluripotent stem cells. FIG. 1B. While some small molecules supported maintenance of pluripotent stem cells, i.e., MEKi/TGFβi/GSKi, and others facilitated single cell dissociation of pluripotent stem cells, i.e., Rocki, the unique combination of these small molecules, i.e., ROCKi/MEKi/TGFβi/GSKi, supported single cell dissociation while maintaining undifferentiated status as indicated by highly proliferative colonies that were positive for pluripotent marker Tra181. Tra181, red; DAPI, blue. FIG. 1C. The combination of MEKi/TFGβi/GSKi/ROCKi supported viability and proliferation when hiPSCs were seeded at 1×10^5 cells on Matrigel and scored 4 days later for number of viable cells and percent viability as measured by trypan blue. FIG. 1D. […] FIG. 1E. […]

human fibroblasts = assay: Reprogramming of fibroblasts to iPSCs: kinetics and efficiency of colony formation; assay type: cell-based; settings: additive used in the culture system for 3 days
Description: To initiate the reprogramming process, ectopic expression of reprogramming factors (in variable combinations of human Oct4, Sox2, Klf4, c-Myc, Lin28, and Nanog) was achieved using lentiviral transduction or other methods such as protein only treatment. In most cases, the starting cells were plated at 10% confluency (i.e., 1×10^5 cells per well of a 6-well plate) on a gelatin (Mediatech) coated surface. For the method of viral infection, freshly collected lentivirus was added to the starting cells at a dilution of 1:2, supplemented with 4 μg/mL polybrene (Millipore), and spin-infected at 650 g at 32° C. for 1.5 hrs. The culture was transferred to 37° C. and 5% CO2 for an additional 7 hrs. After the completion of the incubation, the cells were washed three times with PBS and fed with fresh medium. With difficult to infect cells, such as IMR90 fibroblasts in feeder-free culture systems, this process was repeated one more time, 48 hrs post the initial infection. For non-genetic methods of inducing reprogramming such as the use of direct protein application to the cells, protein mixtures, or cocktails, consisting of reprogramming factors at 8 μg/mL were added to cell solution and maintained for 24 hrs prior to medium change. This step was repeated for an additional two to four times. […]

Question: Which “maintenance of cells in an undifferentiated state (SSEA4 and Tra181 surface expression)” value ([1]; compared with Y27632) does the source give for O=C(NCc1ccccc1)c1csc(Nc2ccncn2)n1 [Thiazovivin] here?
Answer: preferred over Y27632; also recorded: better supports the maintenance of cells in an undifferentiated state

Question: What about the colony morphology ([1]; relative to Y27632) of the same compound?
Answer: more compact in morphology

Question: Which post-sort seeding (human fibroblasts) does the source give for fibronectin here?
Answer: improved post-sort seeding
